How the values were obtained:
[1] = target: Cyclin-dependent kinase 2/G1/S-specific cyclin-E1 (Homo sapiens, UniProt P24941); test: CDK2/Cyclin E1 Full Length ADP-Glo Kinase Assay
Description: ADP-Glo is performed in 2 steps upon completion of kinase reaction: a combined termination of kinase reaction and depletion of remaining ATP in the first step, and conversion of generated ADP to ATP and the newly produced ATP to light output using luciferase/luciferin reaction in the second step. The luminescent signal generated is proportional to the ADP concentration produced and is correlated with the kinase activity. CDK2/Cyclin E1 was purchased from Eurofins (Cat 14-475M). Typical reaction solutions (10 uL final reaction volume) contained 2% DMSO (f inhibitor), 10 mM MgCI2, 1 mM EGTA, 0.05% BSA, 2 mM DTT, 20 uM ATP (ATP Km=64.78 uM), 0.01% Brig-35, 0.75 uM substrate, and 0.328 nM wild-type full length CDK2/Cyclin E1 enzyme complex in 50 mM HEPES buffer at pH 7.5. The assay was initiated with the addition of ATP-containing substrate solution, following a 30-minute pre-incubation of enzyme and inhibitor at room temperature in the reaction mixture. The reaction was stopped after 90 minutes at room temperature by the addition of 10 uL of ADP-GLO Reagent. After a 90 minute incubation, 20 uL of Kinase Detection Reagent was added. Samples were incubated for 40 minutes, after which plate well luminescence was measured on a Envision microplate reader.

[2] = target: Cyclin-dependent kinase 4/G1/S-specific cyclin-D1 (Homo sapiens, UniProt P11802); test: CDK4/Cyclin D1 Mobility Shift Assay (MSA)
Sequence of Cyclin-dependent kinase 4/G1/S-specific cyclin-D1 (P11802 whole entry): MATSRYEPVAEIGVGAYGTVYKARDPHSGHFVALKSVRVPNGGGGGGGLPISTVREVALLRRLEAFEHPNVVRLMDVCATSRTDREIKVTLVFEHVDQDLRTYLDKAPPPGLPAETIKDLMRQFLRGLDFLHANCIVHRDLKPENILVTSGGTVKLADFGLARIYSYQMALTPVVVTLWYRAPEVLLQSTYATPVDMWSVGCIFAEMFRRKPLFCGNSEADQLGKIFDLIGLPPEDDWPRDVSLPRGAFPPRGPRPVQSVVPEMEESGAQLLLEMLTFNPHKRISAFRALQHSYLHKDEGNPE
Sequence of Cyclin-dependent kinase 4/G1/S-specific cyclin-D1 (P24385 whole entry, further chain): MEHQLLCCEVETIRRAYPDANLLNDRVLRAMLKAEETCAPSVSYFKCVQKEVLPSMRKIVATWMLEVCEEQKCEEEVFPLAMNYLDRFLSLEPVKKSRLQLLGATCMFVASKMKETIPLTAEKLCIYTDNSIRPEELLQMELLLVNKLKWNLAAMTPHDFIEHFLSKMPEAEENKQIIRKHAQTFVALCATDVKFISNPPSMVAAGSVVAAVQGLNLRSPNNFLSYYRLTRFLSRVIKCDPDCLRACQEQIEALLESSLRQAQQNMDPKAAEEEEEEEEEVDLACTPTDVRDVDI
Description: CDK4/Cyclin D1 catalyzes the production of ADP from ATP that accompanies the phosphoryl transfer to the substrate peptide 5-FAM-Dyrktide (5-FAM-RRRFRPASPLRGPPK) (Perkin Elmer Peptide 34). The mobility shift assay (MSA) electrophoretically separates the fluorescently labelled peptides (substrate and phosphorylated product) following the kinase reaction. Both substrate and product are measured, and the ratio of these values is used to generate % conversion of substrate to product by the LabChip EZ Reader. Typical reaction solutions contained 2% DMSO (+/−inhibitor), 10 mM MgCl2, 1 mM EGTA, 0.05% BSA, 2 mM DTT, 0.2 mM ATP, 0.01% Brig-35, 1.5 uM 5-FAM-Dyrktide, 2.5 nM CDK4/Cyclin D1 in 50 mM HEPES buffer at pH 7.5. The reaction was initiated with the addition of substrate solution, following a 30-minute pre-incubation of enzyme and inhibitor at 22° C. in the reaction mix. The reaction was stopped after 180 minutes by the addition of 75 uL of 500 mM EDTA and measured on a Perkin Elmer EZ reader instrument.

[3] = target: Cyclin-dependent kinase/G2/mitotic-specific cyclin- 1 (Homo sapiens, UniProt P06493); test: CDK1/Cyclin B1 ADP-Glo Kinase Assay
Sequence of Cyclin-dependent kinase/G2/mitotic-specific cyclin- 1 (P06493 whole entry): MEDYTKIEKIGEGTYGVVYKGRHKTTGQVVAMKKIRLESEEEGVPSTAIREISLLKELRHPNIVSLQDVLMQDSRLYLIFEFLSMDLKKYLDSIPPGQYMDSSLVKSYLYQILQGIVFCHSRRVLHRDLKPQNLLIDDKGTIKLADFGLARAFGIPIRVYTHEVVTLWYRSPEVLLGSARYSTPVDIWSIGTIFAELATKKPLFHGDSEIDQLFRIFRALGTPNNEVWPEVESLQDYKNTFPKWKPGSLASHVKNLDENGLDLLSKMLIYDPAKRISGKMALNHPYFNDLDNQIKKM
Sequence of Cyclin-dependent kinase/G2/mitotic-specific cyclin- 1 (P14635 whole entry, further chain): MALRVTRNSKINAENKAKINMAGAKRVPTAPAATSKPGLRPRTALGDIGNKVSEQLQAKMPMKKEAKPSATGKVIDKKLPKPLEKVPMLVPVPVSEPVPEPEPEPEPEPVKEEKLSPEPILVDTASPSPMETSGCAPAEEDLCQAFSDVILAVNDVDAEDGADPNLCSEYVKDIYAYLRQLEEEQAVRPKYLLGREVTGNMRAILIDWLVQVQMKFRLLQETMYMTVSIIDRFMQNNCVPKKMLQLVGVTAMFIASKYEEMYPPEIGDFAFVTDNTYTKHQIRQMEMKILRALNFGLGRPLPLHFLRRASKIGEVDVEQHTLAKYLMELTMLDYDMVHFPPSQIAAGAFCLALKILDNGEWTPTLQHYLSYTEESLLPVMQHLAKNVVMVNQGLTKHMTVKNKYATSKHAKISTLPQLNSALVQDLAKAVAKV
Description: The luminescent signal generated is proportional to the ADP concentration produced and is correlated with the kinase activity. CDK1/Cyclin B1 was purchased from Carna (Cat 04-102). Typical reaction solutions (10 uL final reaction volume) contained 2% DMSO (f inhibitor), 10 mM MgCl2, 1 mM EGTA, 0.05% BSA, 2 mM DTT, 80 uM ATP (ATP Km=78.6 uM), 0.01% Brig-35, 0.75 uM substrate, and 4.917 nM CDK1/Cyclin Bl enzyme complex in 50 mM HEPES buffer at pH 7.5. The assay was initiated with the addition of ATP-containing substrate solution, following a 30-minute pre-incubation of enzyme and inhibitor at room temperature in the reaction mixture. The reaction was stopped after 90 minutes at room temperature by the addition of 10 uL of ADP-GLO Reagent. After a 90 minute incubation, 20 uL of Kinase Detection Reagent was added. Samples were incubated for 40 minutes, after which plate well luminescence was measured on a Envision microplate reader.

IC50 [1]: < 200 nM
IC50 [2]: 200 to 500 nM
IC50 [3]: > 2000 nM
SMILES: CS(=O)(=O)N1CCC(Nc2ncc3cccc(N4CCC(N5CCC5)C4)c3n2)CC1 (stereo not drawn) [US20240092761, Compound 32]
